US20260042731A1, “(2,4-DICHLOROPHENOXY)ACETIC ACID ANALOGS” (CORTEVA AGRISCIENCE LLC, priority 2022, published 2026)
Like-named read-outs stand apart in the source and are kept apart here.

What was measured:
[1] = system: Amaranthus rudis (AMATA), tall water hemp; assay: Postemergence herbicide evaluation, growth of Amaranthus rudis (AMATA); assay type: in vivo; settings: Amaranthus tuberculatus, post-emergence, read-out: Ave. AMATA, percent reduction in plant size relative to the untreated control; for pest or weed control at 280 g/ha: 280 g ae/ha; for pest or weed control at 560 g/ha: 560 g ae/ha
[2] = system: Ambrosia artemisiifolia (AMBEL), common ragweed; assay: Postemergence herbicide evaluation, growth of Ambrosia artemisiifolia (AMBEL); assay type: in vivo; settings: Ambrosia artemisiifolia, post-emergence, read-out: AVE. AMBEL, percent reduction in plant size relative to the untreated control; for pest or weed control at 280 g/ha: 280 g ae/ha; for pest or weed control at 560 g/ha: 560 g ae/ha
[3] = system: Abutilon theophrasti (ABUTH), velvetleaf; assay: Postemergence herbicide evaluation, growth of Abutilon theophrasti (ABUTH); assay type: in vivo; settings: Abutilon theophrasti, post-emergence, read-out: AVE. ABUTH, percent reduction in plant size relative to the untreated control; for pest or weed control at 280 g/ha: 280 g ae/ha; for pest or weed control at 560 g/ha: 560 g ae/ha
[4] = system: Chenopodium album (CHEAL), common lambsquarters; assay: Postemergence herbicide evaluation, growth of Chenopodium album (CHEAL); assay type: in vivo; settings: Chenopodium album, post-emergence, read-out: Ave. CHEAL, percent reduction in plant size relative to the untreated control; for pest or weed control at 280 g/ha: 280 g ae/ha; for pest or weed control at 560 g/ha: 560 g ae/ha
[5] = system: glyphosate resistant Conyza canadensis (L.) (ERICA), horseweed; assay: Postemergence herbicide evaluation, growth of Conyza canadensis (ERICA); assay type: in vivo; settings: Erigeron canadensis, post-emergence, read-out: Ave. ERICA, percent reduction in plant size relative to the untreated control; for pest or weed control at 280 g/ha: 280 g ae/ha; for pest or weed control at 560 g/ha: 560 g ae/ha
[6] = Volatility of compounds measured by thermogravimetric analysis (TGA); assay type: physicochemical
[7] = system: weeds ABUTH, AMATA, AMBEL, CHEAL, ERICA; assay: Postemergence herbicide evaluation, overall average % weed control (ABUTH, AMATA, AMBEL, CHEAL, ERICA); assay type: in vivo; settings: post-emergence, read-out: Overall Ave % Weed Control; for pest or weed control at 280 g/ha: 280 g ae/ha; for pest or weed control at 560 g/ha: 560 g ae/ha

Question: Which results are given for `Cc1nccc(NC(=O)COc2ccc(Cl)cc2Cl)c1C` [Compound D26]?
Answer: pest or weed control at 280 g/ha ([1]; 168 h, 7 DAA): 72.5%; pest or weed control at 560 g/ha ([1]; 168 h, 7 DAA): 85%; pest or weed control at 280 g/ha ([1]; 336 h, 14 DAA): 88.5%; pest or weed control at 560 g/ha ([1]; 336 h, 14 DAA): 87.5%; pest or weed control at 280 g/ha ([1]; 504 h, 21 DAA): 75%; pest or weed control at 560 g/ha ([1]; 504 h, 21 DAA): 87.5%; pest or weed control at 280 g/ha ([2]; 168 h, 7 DAA): 75%; pest or weed control at 560 g/ha ([2]; 168 h, 7 DAA): 90%; pest or weed control at 280 g/ha ([2]; 336 h, 14 DAA): 70%; pest or weed control at 560 g/ha ([2]; 336 h, 14 DAA): 85%; pest or weed control at 280 g/ha ([2]; 504 h, 21 DAA): 100%; pest or weed control at 560 g/ha ([2]; 504 h, 21 DAA): 100%; pest or weed control at 280 g/ha ([3]; 168 h, 7 DAA): 42.5%; pest or weed control at 560 g/ha ([3]; 168 h, 7 DAA): 55%; pest or weed control at 280 g/ha ([3]; 336 h, 14 DAA): 52.5%; pest or weed control at 560 g/ha ([3]; 336 h, 14 DAA): 65%; pest or weed control at 280 g/ha ([3]; 504 h, 21 DAA): 62.5%; pest or weed control at 560 g/ha ([3]; 504 h, 21 DAA): 70%; pest or weed control at 280 g/ha ([4]; 168 h, 7 DAA): 75%; pest or weed control at 560 g/ha ([4]; 168 h, 7 DAA): 77.5%; pest or weed control at 280 g/ha ([4]; 336 h, 14 DAA): 85%; pest or weed control at 560 g/ha ([4]; 336 h, 14 DAA): 77.5%; pest or weed control at 280 g/ha ([4]; 504 h, 21 DAA): 92.5%; pest or weed control at 560 g/ha ([4]; 504 h, 21 DAA): 95%; pest or weed control at 280 g/ha ([5]; 168 h, 7 DAA): 57.5%; pest or weed control at 560 g/ha ([5]; 168 h, 7 DAA): 60%; pest or weed control at 280 g/ha ([5]; 336 h, 14 DAA): 91.5%; pest or weed control at 560 g/ha ([5]; 336 h, 14 DAA): 100%; pest or weed control at 280 g/ha ([5]; 504 h, 21 DAA): 62.5%; pest or weed control at 560 g/ha ([5]; 504 h, 21 DAA): 72.5%; TGA Data (rate of weight loss, volatility) [6]: 0.09713 µg/min; pest or weed control at 280 g/ha ([7]; 168 h, 7 DAA): 64.5%; pest or weed control at 560 g/ha ([7]; 168 h, 7 DAA): 73.5%; pest or weed control at 280 g/ha ([7]; 336 h, 14 DAA): 77.5%; pest or weed control at 560 g/ha ([7]; 336 h, 14 DAA): 83%; pest or weed control at 280 g/ha ([7]; 504 h, 21 DAA): 78.5%; pest or weed control at 560 g/ha ([7]; 504 h, 21 DAA): 85%
